Source: ChEMBL document CHEMBL2074299, “Hepatic uptake of the novel antifungal agent caspofungin” (Drug Metab Dispos, 2005)
One block for each compound: values may come before it.

What was measured:
Format in all cases: functional, cell-based
[1] = target: T1, Solute carrier family 22 member 6 (Homo sapiens, UniProt Q4U2R8); assay: TP_TRANSPORTER: inhibition of p-amino hippurate uptake (Indomethacin:100 uM) in OAT1-expressing HeLa cells; parameters: scale not given: the % may be the effect or the level left
T1 sequence (Q4U2R8 whole entry): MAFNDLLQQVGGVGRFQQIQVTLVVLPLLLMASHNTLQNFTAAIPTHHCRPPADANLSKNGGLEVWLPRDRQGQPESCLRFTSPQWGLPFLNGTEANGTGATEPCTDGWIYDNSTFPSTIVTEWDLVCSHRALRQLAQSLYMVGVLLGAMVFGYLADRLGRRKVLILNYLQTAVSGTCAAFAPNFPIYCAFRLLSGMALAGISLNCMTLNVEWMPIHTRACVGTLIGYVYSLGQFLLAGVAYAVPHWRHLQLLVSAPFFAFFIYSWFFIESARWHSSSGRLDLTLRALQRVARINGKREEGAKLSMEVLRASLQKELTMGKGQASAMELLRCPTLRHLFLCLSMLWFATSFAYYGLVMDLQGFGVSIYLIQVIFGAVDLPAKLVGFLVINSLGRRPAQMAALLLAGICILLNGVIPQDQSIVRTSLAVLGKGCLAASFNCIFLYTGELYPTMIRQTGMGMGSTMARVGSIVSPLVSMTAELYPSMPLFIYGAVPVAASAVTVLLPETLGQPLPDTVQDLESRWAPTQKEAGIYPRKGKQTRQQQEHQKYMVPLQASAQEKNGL

[2] = target: T2, OATP1B1 (solute carrier organic anion transporter family member 1B1) (Homo sapiens, UniProt Q9Y6L6); assay: TP_TRANSPORTER: inhibition of estradiol-17beta-D-glucuronide uptake (Lovastatin:10 uM) in OATP1B1-expressing HeLa cells; parameters: scale not given: the % may be the effect or the level left; conditions: HeLa cells that express OATP1B1, probe estradiol-17beta-D-glucuronide, read-out: Activity
T2 sequence (Q9Y6L6 whole entry): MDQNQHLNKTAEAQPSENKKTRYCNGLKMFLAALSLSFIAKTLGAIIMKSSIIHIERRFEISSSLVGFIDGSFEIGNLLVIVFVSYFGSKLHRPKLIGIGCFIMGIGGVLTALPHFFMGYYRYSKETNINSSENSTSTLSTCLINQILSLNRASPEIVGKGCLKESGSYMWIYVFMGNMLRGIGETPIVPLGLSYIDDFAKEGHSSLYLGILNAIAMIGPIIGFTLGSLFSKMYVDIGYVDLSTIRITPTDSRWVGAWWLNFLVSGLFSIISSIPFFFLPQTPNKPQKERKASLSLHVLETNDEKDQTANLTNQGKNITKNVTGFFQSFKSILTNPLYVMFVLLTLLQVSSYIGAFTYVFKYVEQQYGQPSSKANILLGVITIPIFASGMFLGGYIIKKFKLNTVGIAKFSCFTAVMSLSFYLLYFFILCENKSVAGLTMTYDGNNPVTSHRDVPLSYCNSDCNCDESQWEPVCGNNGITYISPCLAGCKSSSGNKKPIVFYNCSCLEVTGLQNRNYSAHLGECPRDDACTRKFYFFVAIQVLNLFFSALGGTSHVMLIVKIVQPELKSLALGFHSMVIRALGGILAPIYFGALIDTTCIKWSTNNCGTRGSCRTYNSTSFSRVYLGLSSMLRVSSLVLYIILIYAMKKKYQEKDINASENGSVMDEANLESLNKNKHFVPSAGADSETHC

[3] = target: T3, NTCP (hepatic sodium/bile acid cotransporter) (Homo sapiens, UniProt Q14973); assay: TP_TRANSPORTER: inhibition of Taurocholate uptake (Ursodeoxycholate:10 micro;M) in NTCP-expressing HeLa cells; parameters: scale not given: the % may be the effect or the level left; conditions: HeLa cells that express NTCP, probe taurocholate, read-out: Activity
T3 sequence (Q14973 whole entry): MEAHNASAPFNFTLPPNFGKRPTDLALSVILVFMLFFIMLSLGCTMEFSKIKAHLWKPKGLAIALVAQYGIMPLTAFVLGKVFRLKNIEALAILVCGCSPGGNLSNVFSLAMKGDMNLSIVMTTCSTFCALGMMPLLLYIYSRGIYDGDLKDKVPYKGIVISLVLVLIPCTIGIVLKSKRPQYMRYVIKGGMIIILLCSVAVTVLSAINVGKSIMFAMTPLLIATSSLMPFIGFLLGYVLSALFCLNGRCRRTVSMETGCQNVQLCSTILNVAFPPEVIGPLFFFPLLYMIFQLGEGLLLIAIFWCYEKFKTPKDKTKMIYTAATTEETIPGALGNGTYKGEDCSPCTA

[4] = target: T4, OCT1 (solute carrier family 22 member 1) (Homo sapiens, UniProt O15245); assay: TP_TRANSPORTER: inhibition of Tetraethyl ammonium uptake (Quinidine:100 uM) in OCT1-expressing HeLa cells; parameters: scale not given: the % may be the effect or the level left; conditions: HeLa cells that express OCT1, probe tetraethyl ammonium, read-out: Activity
T4 sequence (O15245 whole entry): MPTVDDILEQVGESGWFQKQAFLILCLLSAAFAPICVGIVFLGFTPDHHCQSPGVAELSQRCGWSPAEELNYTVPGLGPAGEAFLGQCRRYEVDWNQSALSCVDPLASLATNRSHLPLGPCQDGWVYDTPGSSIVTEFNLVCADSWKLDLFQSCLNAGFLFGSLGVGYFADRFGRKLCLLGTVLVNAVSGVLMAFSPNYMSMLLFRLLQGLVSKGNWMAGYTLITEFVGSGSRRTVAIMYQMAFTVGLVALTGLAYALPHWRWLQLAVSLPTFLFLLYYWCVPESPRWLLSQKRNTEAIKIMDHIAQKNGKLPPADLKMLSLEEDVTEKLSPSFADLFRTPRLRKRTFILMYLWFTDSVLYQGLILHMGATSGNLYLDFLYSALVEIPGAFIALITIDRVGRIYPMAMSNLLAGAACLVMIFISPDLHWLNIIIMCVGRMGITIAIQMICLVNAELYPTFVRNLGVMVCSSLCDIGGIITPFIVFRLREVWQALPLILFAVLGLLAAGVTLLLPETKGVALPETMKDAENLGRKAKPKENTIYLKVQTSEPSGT

[5] = target: ATP-dependent translocase ABCB1 (Homo sapiens, UniProt P08183); assay: TP_TRANSPORTER: cell accumulation of vinblastine in KB-V1 cells
Chain of ATP-dependent translocase ABCB1 (P08183 whole entry): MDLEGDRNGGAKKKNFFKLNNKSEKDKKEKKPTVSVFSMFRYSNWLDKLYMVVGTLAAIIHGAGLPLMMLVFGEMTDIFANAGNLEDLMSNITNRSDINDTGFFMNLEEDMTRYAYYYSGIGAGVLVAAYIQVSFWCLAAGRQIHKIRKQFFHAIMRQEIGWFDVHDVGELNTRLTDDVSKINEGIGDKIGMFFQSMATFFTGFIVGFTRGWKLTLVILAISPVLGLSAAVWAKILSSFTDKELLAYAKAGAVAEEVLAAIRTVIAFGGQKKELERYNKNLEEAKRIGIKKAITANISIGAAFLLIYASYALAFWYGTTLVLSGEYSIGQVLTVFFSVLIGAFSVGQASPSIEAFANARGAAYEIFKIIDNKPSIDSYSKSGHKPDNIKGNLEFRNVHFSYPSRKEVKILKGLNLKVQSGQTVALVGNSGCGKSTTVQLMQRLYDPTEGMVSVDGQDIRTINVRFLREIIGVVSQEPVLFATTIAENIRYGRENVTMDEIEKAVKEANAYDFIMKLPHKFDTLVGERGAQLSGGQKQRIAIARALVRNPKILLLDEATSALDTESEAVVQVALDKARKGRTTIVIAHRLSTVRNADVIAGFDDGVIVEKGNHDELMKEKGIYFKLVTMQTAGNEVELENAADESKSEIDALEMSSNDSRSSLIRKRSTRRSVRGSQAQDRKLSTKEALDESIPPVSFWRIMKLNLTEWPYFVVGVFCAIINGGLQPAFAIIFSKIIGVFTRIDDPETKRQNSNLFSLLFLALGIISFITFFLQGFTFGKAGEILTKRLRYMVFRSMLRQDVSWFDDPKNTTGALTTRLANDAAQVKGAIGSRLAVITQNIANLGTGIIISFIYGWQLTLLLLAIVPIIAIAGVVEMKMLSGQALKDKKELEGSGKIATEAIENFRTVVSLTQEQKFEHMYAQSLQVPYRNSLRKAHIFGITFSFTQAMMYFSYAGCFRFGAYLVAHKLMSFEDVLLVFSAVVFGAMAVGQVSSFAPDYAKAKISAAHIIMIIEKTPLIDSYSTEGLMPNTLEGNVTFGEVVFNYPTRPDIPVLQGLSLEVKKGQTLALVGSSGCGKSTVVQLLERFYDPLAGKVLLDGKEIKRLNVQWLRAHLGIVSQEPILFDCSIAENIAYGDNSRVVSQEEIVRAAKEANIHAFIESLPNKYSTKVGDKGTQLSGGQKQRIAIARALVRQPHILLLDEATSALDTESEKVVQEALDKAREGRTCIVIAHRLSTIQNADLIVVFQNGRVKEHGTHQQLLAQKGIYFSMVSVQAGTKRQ

[6] = target: T5, Solute carrier organic anion transporter family member 1B3 (Homo sapiens, UniProt Q9NPD5); assay: TP_TRANSPORTER: uptake in OATP1B3-expressing Tet-on HeLa cells
T5 sequence (Q9NPD5 whole entry): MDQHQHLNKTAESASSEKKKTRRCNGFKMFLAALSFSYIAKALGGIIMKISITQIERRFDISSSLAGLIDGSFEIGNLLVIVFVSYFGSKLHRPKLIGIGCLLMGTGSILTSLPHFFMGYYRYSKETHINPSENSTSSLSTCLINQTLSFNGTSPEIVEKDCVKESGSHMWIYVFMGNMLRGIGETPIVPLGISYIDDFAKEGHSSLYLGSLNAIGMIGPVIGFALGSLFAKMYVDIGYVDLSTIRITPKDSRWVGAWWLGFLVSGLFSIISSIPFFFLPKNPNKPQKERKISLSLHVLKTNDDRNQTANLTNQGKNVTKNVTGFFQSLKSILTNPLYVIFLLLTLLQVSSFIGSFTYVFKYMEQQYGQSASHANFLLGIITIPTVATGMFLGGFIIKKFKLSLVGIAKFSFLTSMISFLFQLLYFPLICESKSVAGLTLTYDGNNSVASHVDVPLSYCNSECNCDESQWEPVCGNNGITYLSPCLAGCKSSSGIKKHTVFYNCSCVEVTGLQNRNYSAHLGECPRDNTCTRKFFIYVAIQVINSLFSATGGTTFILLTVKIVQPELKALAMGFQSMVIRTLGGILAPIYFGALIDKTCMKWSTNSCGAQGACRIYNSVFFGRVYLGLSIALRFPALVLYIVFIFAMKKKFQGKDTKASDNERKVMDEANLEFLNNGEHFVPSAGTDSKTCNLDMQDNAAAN

[7] = target: T6, Solute carrier organic anion transporter family member 1B1 (Homo sapiens, UniProt Q9Y6L6); assay: TP_TRANSPORTER: inhibition of estradiol-17beta-D-glucuronide uptake (Caspofungin:100 uM) in OATP1B1-expressing HeLa cells; parameters: scale not given: the % may be the effect or the level left
T6 sequence (Q9Y6L6 whole entry): T2 sequence (Q9Y6L6 whole entry)

[8] = target: T4, OCT1 (solute carrier family 22 member 1); assay: TP_TRANSPORTER: inhibition of Tetraethyl ammonium uptake (Caspofungin:100 uM) in OCT1-expressing HeLa cells; parameters: scale not given: the % may be the effect or the level left; conditions: HeLa cells that express OCT1, probe tetraethyl ammonium, read-out: Activity
[9] = target: T1, Solute carrier family 22 member 6; assay: TP_TRANSPORTER: inhibition of p-amino hippurate uptake (Caspofungin:100 uM) in OAT1-expressing HeLa cells; parameters: scale not given: the % may be the effect or the level left
[10] = target: T6, Solute carrier organic anion transporter family member 1B1; assay: TP_TRANSPORTER: uptake in OATP1B1-expressing Tet-on HeLa cells
[11] = target: T3, NTCP (hepatic sodium/bile acid cotransporter); assay: TP_TRANSPORTER: inhibition of Taurocholate uptake (Caspofungin:100 uM) in NTCP-expressing HeLa cells; parameters: scale not given: the % may be the effect or the level left; conditions: HeLa cells that express NTCP, probe taurocholate, read-out: Activity

Compound: COc1ccc2c(c1)c(CC(=O)O)c(C)n2C(=O)c1ccc(Cl)cc1 [INDOMETHACIN]
- Activity [1]: 20%

Compound: C[C@H](CCC(=O)O)[C@H]1CC[C@H]2[C@@H]3[C@@H](O)C[C@@H]4C[C@H](O)CC[C@]4(C)[C@H]3CC[C@]12C [URSODIOL]
- activity at 10 µM [3]: 30%

Compound: CC[C@H](C)C[C@H](C)CCCCCCCCC(=O)N[C@H]1C[C@@H](O)[C@@H](NCCN)NC(=O)[C@@H]2[C@@H](O)CCN2C(=O)[C@H]([C@H](O)CCN)NC(=O)[C@H]([C@H](O)[C@@H](O)c2ccc(O)cc2)NC(=O)[C@@H]2C[C@@H](O)CN2C(=O)[C@H]([C@@H](C)O)NC1=O [CASPOFUNGIN]
- Activity [5]: inhibitor [+]
- Activity [6]: is not a substrate [-]
- Activity [7]: 5%
- activity at 100 µM [8]: 30%
- Activity [9]: 40%
- Activity [10]: substrate [+]
- activity at 100 µM [11]: 10%

Second part, the compound after the results:

- activity at 10 µM [2]: 40%
Compound: CC[C@H](C)C(=O)O[C@H]1C[C@@H](C)C=C2C=C[C@H](C)[C@H](CC[C@@H]3C[C@@H](O)CC(=O)O3)[C@H]21 [LOVASTATIN]

- activity at 100 µM [4]: 20%
Compound: C=C[C@H]1C[N@@]2CC[C@H]1C[C@@H]2[C@@H](O)c1ccnc2ccc(OC)cc12 [QUINIDINE]
